Measurements taken from paper PMC9695592, “Phenotypic Evaluation of Nucleoside Analogues against Trypanosoma cruzi Infection: In Vitro and In Vivo Approaches” (Molecules, 2022).
Where two headings read alike, the source gives them in different places.

Assays:
[1] = system: promastigotes of Lmex^ΔNT1+TcrNT2; assay: Resazurin-based assay on Cas9^ΔNT1+TcrNT2 promastigotes; type: cell-based, Leishmania mexicana; details: for EC50: Leishmania mexicana, read-out: Lmex^ΔNT1+TcrNT2 EC50 (μM); for Lmex^ΔNT1+TcrNT2 Sensitization (fold): ratio of the EC50 values of the Cas9^ΔNT1 and Cas9^ΔNT1+TcrNT2 strains
Experimental: (§1) Bloodstream trypomastigotes of the Y strain (DTU II) were obtained by cardiac puncture of infected Swiss Webster mice on the parasitemia peak to perform drug sensitivity assays. Trypomastigote forms of the Tulahuen-β gal strain were collected from the supernatant of previously infected L929 cell cultures (host/parasite cell ratio 10:1). The intracellular forms T. cruzi were studied by the infection of L929 and H9C2 (2D and 3D) cell cultures infected for 48 and 24 h with trypomastigotes of Tulahuen-β gal and Y strains, respectively. The Leishmania mexicana-Cas9 T7 strain (LmexCas9) was derived from L. mexicana WT promastigotes by expression of the Streptococcus pyogenes Cas9 nuclease gene ‘Cas9′ and maintained on 32 μg/mL hygromycin [51]. This strain and the derived strains Cas9^ΔNT1 and Cas9^ΔNT1+TcrNT2 were cultured in HOMEM medium supplemented with 10% of FBS and 1% Penicillin-Streptomycin antibiotic in unvented flasks at 25 °C [52]. The Cas9^ΔNT1 strain is identical to Cas9 except that the LmexNT1.1/NT1.2 locus encoding the L. mexicana adenosine/ pyrimidine transporters was excised using Cas9 [17, 40]. Cas9^ΔNT1+TcrNT2 is the further modification of that strain by the expression of the T. cruzi nucleoside transporter 2 (TcrNT2) gene in it, using the vector pNUS-HcN [53]. Appropriate antibiotics were added for the selection and maintenance of transfectants.
(§2) The EC50 values for nucleoside analogues against Leishmania mexicana promastigotes of the Cas9, Cas9^ΔNT1 and Cas9^ΔNT1+TcrNT2 strains used a resazurin-based assay, as described. Briefly, the assays were performed in standard HOMEM medium and culture conditions, in white opaque 96-well plates. For each test compound (stored as a 40 mM stock solution in 100% DMSO at −20 °C), a doubling dilution was performed over 2 rows of the plate, keeping the last well free as no-drug control with HOMEM only (23 doubling dilutions; highest concentration 100 µM). To each well, 100 µL of HOMEM containing 2 × 10^5 cells of the appropriate L. mexicana line was added, and the plates incubated for 72 h at 25 °C, followed by the addition of 20 µL of resazurin solution and further incubation for 48 h. Fluorescence was read on a FLUOstar OPTIMA plate reader (BMG Labtech, Germany), at an excitation wavelength of 544 nm and an emission wavelength of 620 nm. The EC50 values were determined by the GraphPad Prism 8.0 software using an equation for a sigmoid curve with variable slope. Pentamidine was used as positive control, and every experiment was independently performed at least 3 times independently.

LmexNT1 = LmexNT1 (Leishmania mexicana, UniProt E9AQB5); assay: Inhibition of [3H]-adenosine uptake by LmexNT1.1 expressed in L. mexicana promastigotes; type: biochemical
Experimental: Figure 2 Uptake of 50 nM [^3H]-adenosine by LmexNT1.1 expressed in L. mexicana promastigotes from which both original alleles of LmexNT1.1/NT1.2 and of LmexNT2 had been deleted by CRISPR/cas9. Incubation time was 10 s, well within the linear phase of uptake. Symbols represent averages of triplicate determinations, and error bars indicate ± SEM when not shown error bars fall within the symbol. The graph shown is a single experiment in triplicate, representative of three identical, independent repeats.
Uptake of 50 nM 2,8-^3H-adenosine (American Radiolabelled Chemicals (ART0287A), 40 Ci/ mmol) was exactly measured, exactly as described. Briefly, promastigotes were washed into the standard assay buffer (AB) by centrifugation, and aliquots of 100 µL containing 10^7 parasites were incubated with the radiolabel on top of an oil layer in a microfuge tube, for exactly 5 s. The incubation was stopped by the addition of 800 µL of ice-cold 1 mM adenosine in AB and immediate centrifugation through the oil layer to separate cells from the remaining extracellular radiolabel. Cell pellets were collected in scintillation vials after flash freezing in liquid nitrogen, by cutting of the tip of the microfuge tube. The promastigotes were then solubilised in 1% SDS, and scintillation fluid was added (Scintlogic U, Lablogic), and radioactivity was quantified in a Hidex 300SL scintillation counter (Lablogic). Data was plotted using non-linear regression with an equation for a sigmoid curve with a variable slope in Prism v8 (GraphPad).

[2] = system: promastigotes of Cas9^ΔNT1; assay: Resazurin-based assay on Cas9^ΔNT1 promastigotes; type: cell-based, Leishmania mexicana; details: Leishmania mexicana, read-out: Cas9^ΔNT1 EC50 (μM), promastigotes, resazurin-based assay, highest concentration 100 µM
Experimental: as §1, §2

[3] = system: promastigotes of LmexCas9; assay: Resazurin-based assay on LmexCas9 promastigotes; type: cell-based, Leishmania mexicana
Experimental: as §1, §2

H9C2 3D cultures = assay: Cardiotoxicity on H9C2 organoids (3D), PrestoBlue; type: cell-based, rat; details: Rattus norvegicus, H9c2, 168 h, 3D H9C2, seven days of compound incubation; 95% confidence interval in brackets; read-out: Cardiotoxic profile IC50 (µM) 3D
From the text: (§3) L929 cell lines were used to evaluate the effect of the nucleoside derivatives on the cellular viability of mammalian host cells and to assess their activity against intracellular forms of T. cruzi (Tulahuen strain expressing E. coli β-galactosidase gene, DTU VI) as reported. 2D and 3D culture systems of rat cardiomyoblast cell lines (H9C2(2-1)) were used to evaluate cardiotoxicity and to test the derivatives’ activity on intracellular forms (Y strain, DTU II). In all assays, the cell cultures were maintained at 37 °C under an atmosphere of 5% CO2.
(§4) L929 cells seeded in sterile 96-well microtiter plates were exposed or not to increasing concentrations (up to 200 µM) of the compounds. After seven days of incubation, the cell growth of treated cultures was compared to untreated control cells (100% cell growth). Cellular viability was assessed through AlamarBlue® (resazurin sodium salt) colorimetric assay, and the results were expressed as % reduction in cell growth/viability compared to untreated control, and an IC50 value determined. For the assays using H9C2 cultures, 25 × 10^3 cells/well were seeded in a 96-well microtiter plates (flat and U bottoms, precoated with agarose 1% for preparing 2- and 3D matrices, respectively) and maintained at 37 °C [48, 54].
The cardiac cultures were exposed or not to increasing concentrations of the nucleoside derivatives (up to 300 µM), and after seven days of incubation, their physiology and morphology was evaluated by light microscopy. Cell viability was measured using the PrestoBlue® (PB) colorimetric assay, the results evaluated as % reduction in cell growth/viability compared to untreated control, and an IC50 value determined. The data results from at least two independent experiments done in at least duplicates.

H9C2 2D cultures = assay: Cardiotoxicity on H9C2 monolayers (2D), PrestoBlue; type: cell-based; details: Rattus norvegicus, 168 h; 2D H9C2, seven days of compound incubation; 95% confidence interval in brackets; read-out: Cardiotoxic profile IC50 (µM) 2D
From the text: as §3
as §4, with “After seven days of incubation, the cell growth of treated cultures was compared to untreated control cells (100% cell growth).” left out
[…] Cell viability was measured using the PrestoBlue® (PB) colorimetric assay, the results evaluated as % reduction in cell growth/viability compared to untreated control, and an IC50 value determined. The data results from at least two independent experiments done in at least duplicates.

[4] = Leishmania mexicana, read-out: Cas9 EC50 (μM), promastigotes, resazurin-based assay, highest concentration 100 µM

Chain of LmexNT1 (E9AQB5 entry or part of it): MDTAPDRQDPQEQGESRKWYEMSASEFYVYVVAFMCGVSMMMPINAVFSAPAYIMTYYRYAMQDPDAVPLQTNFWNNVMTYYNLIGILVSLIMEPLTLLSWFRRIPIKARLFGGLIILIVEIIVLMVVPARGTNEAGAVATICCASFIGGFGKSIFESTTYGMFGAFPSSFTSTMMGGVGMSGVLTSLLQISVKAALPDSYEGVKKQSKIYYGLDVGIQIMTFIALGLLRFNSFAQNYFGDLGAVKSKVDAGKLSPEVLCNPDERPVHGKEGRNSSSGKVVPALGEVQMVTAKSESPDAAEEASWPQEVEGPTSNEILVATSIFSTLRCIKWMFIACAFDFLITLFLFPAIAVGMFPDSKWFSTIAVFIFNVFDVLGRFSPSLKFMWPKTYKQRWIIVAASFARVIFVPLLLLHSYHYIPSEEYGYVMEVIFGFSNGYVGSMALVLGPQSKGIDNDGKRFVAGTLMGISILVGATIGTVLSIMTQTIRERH

SMILES	EC50 [1]	Lmex^ΔNT1+TcrNT2 Sensitization (fold) [1]	Ki (LmexNT1)	EC50 [2]	EC50 [3, 4]	IC50 (H9C2 3D cultures)	IC50 (H9C2 2D cultures)	EC50 ([3]; read-out: Cas9 EC50, promastigotes, resazurin-based assay, highest concentration 100 µM)
Nc1ncnc2c1c(Cl)cn2[C@@H]1O[C@H](CO)[C@@H](O)[C@H]1O [FH3169]	0.32 ± 0.05 µM	6.3 fold	2.8 ± 0.2 µM	2 ± 0.19 µM	0.24 ± 0.06 µM			
Nc1ncnc2c1c(-c1ccc(Cl)cc1)cn2[C@@H]1O[C@H](CO)[C@@H](O)[C@H]1O [TH1012]	96.6 ± 0.3 µM	2.9 fold		280 ± 18 µM	52.5 ± 0.3 µM			
Nc1ncnc2c1c(-c1ccccc1)cn2[C@@H]1O[C@H](CO)[C@@H](O)[C@H]1O [TH1004]	101 ± 0.5 µM	1.37 fold	3.8 ± 0.3 µM	138 ± 10 µM	37 ± 0.23 µM			
Nc1ncnc2c1ccn2[C@@H]1O[C@H](CO)[C@@H](O)[C@H]1O [Tubercidin, reference compound]			5.8 ± 0.6 µM	25.7 ± 0.94 µM	1.02 ± 0.16 µM			
N=C(N)c1ccc(OCCCCCOc2ccc(C(=N)N)cc2)cc1 [Pentamidine, reference compound]	1.12 ± 0.17 µM	1.11 fold		1.25 ± 0.22 µM	0.87 ± 0.1 µM	> 200 µM	46 µM	
Nc1ncnc2c1c(-c1ccc(Cl)c(Cl)c1)cn2[C@@H]1O[C@H](CO)[C@@H](O)[C@H]1O [FH3147, 7-(3,4-dichlorophenyl)tubercidin]	13.7 ± 1.25 µM			> 100 µM	8.4 ± 1.6 µM			8.41 ± 1.61 µM
